Measurements published in US5292760A, “4-heteroaryl-1,3-benzodiazepines and 2-substituted-α-(heteroaryl)benzeneethanamines” (Hoechst-Roussel Pharmaceuticals Inc., priority 1992, dated 1994).
Structures can show the parent of a compound that is named as a salt. Where two headings read alike, the source gives them in different places.

Tests used:
[1] = test system: supramaximal electroshock (SES); experiment: supramaximal electroshock (SES) assay (anticonvulsant activity); format: in vivo, male mouse; conditions: Mus musculus, ip, read-out: Anticonvulsant Activity ED50
Procedure: The Formula III compounds of this invention are useful as anticonvulsants due to their anticonvulsant activity in mammals. Anticonvulsant activity is measured in the male mouse using the supramaximal electroshock (SES) assay described in Arch. Int. Pharmacodyn. 92: 97-107, 1952. Intraperitoneal doses of representative compounds of the invention and their ability to protect from the effect of SES is shown below in Table 2. ED50 values, i.e., the doses at which, within 95% confidence intervals, 50% of the animals are protected are calculated by computerized probit analysis.

[2] = test system: N-methyl-D-aspartic acid (NMDA)-induced seizures; experiment: N-Methyl-D,L-Aspartic Acid Induced Seizure Assay (NMDA protection); format: in vivo, male Swiss Webster mice; conditions: Mus musculus, 0.5 h; ip; N-methyl-D,L-aspartic acid 350 mg/kg, sc; total absence of clonic seizures during 30 minutes
Procedure: In this assay, male Swiss Webster mice (Charles River), 18-25 grams are used. Animals are ordered at 33 to 36 days of age and can be used for 8 days after arrival. They are housed for at least 24 hours in a climate controlled animal colony with food and water available ad libitum. On the day of testing, animals are brought to the laboratory and randomly assigned to groups. N-Methyl-D,L-aspartic acid (350 mg) is dissolved in 10 ml of saline and mixed thoroughly with a homogenizer for 1-2 minutes. Test compounds are prepared in distilled water and, if insoluable, a suitable surfactant is added. For a primary screen the test compound is administered at 60 mg/kg, ip (10 ml/kg), to groups of ten mice, 30 minutes prior to challenge with N-methyl-D,L-aspartic acid (350 mg/kg, sc). After N-Methyl-D,L-aspartic acid administration animals are placed individually in clear plastic cyclinders (12"×5.5"×1/4") and then observed for clonic seizures. N-methyl-D,L-aspartic acid will produce clonic seizures, and sometimes tonic seizures and death, in vehicle control animals.
A clonic convulsion is defined as a single episode of clonic spasms of a least a 3 second duration. A tonic seizure is defined as a brief period of hindlimb flexion followed by a prolonged period of hindlimb extension. The mice treated with N-methyl-D,L-aspartic acid are considered "protected" when there is a total absence of clonic seizures during the 30 minute observation period.
Test compounds are run at the time of peak effect. Three or more doses are used (10 animals per group).
Data is calculated by the method of J. T. Litchfield, Jr. and F. Wilcoxon. A test should be repeated if 40% of vehicle control animals are protected. The normalized percent formula is used when 10-30% of the vehicle control animals are protected.
The normalized percent protection is calculated using the following formula: […]

[3] = test system: Geller Conflict Paradigm in Rats; experiment: Geller Conflict Paradigm in Rats (anxiolytic activity); format: in vivo
Source text: The intraperitoneal (i.p.) dosages at which the following compounds show anxiolytic activity are: […]

[4] = test system: tetrabenazine induced ptosis; experiment: tetrabenazine induced ptosis assay in mice (antidepressant activity); format: in vivo; conditions: Mus musculus, ip, read-out: Anti-Depressant Activity ED50
[5] = 50% inhibition of ptosis of tetrabenazine-induced depression in mice

CNC(Cc1cc(Br)ccc1N)c1sccc1C (stereo not drawn) [2-Amino-5-bromo-N-methyl-α-(3-methyl-2-thienyl)benzeneethaneamine] was tested, and the ED50 [1] was 9.2 mg/kg.
With NC(CCCP(=O)(O)O)C(=O)O (stereo not shown) [2-Amino-5-phosphonovaleric acid, reference compound] the ED50 [2] was 48.5 mg/kg.
CCNC(Cc1ccccc1N)c1sccc1C.Cl.Cl (stereo not drawn) [2-Amino-N-ethyl-α-(3-methyl-2-thienyl)benzeneethanamine dihydrochloride] was tested, and the “Anti-Conflict Response, % Change Compared to Control” value ([3]; dose 1 m.g./kg i.p.) was “+100%” and the “Anti-Conflict Response, % Change Compared to Control” value ([3]; dose 5 m.g./kg i.p.) was “+70%”.
CNC(Cc1ccccc1N)c1cccs1 (stereo not drawn) [2-Amino-N-methyl-α-(2-thienyl)benzeneethanamine dihydrochloride hemihydrate] was tested, and the ED50 [1] was 30.4 mg/kg.
In the case of CNC(Cc1ccc(C(F)(F)F)cc1N)c1sccc1C (stereo not drawn) [2-Amino-N-methyl-α-(3-methyl-2-thienyl)-4-trifluoromethylbenzeneethanamine], the ED50 [2] is reported as 26.4 mg/kg.
For CNC(Cc1ccccc1N)c1sccc1C (stereo not drawn) [2-Amino-N-methyl-α-(3-methyl-2-thienyl)benzeneethanamine], the ED50 [1] was 4.6 mg/kg, the “Anti-Conflict Response, % Change Compared to Control” value ([3]; dose 20 m.g./kg i.p.) was “+807%” and the “Anti-Conflict Response, % Change Compared to Control” value ([3]; dose 40 m.g./kg i.p.) was “+547%”. For the same compound, the “Anti-Conflict Response, % Change Compared to Control” value ([3]; dose 60 m.g./kg i.p.) was “+242%” and the ED50 [2] was 26.7 mg/kg.
Cc1ccsc1C(N)Cc1ccccc1N.Cl.Cl (stereo not drawn) [2-Amino-α-(3-methyl-2-thienyl)benzeneethanamine dihydrochloride] was tested, and the ED50 [2] was 19 mg/kg.
CC1=Nc2ccccc2CC(c2ccc(C)s2)N1C (stereo not shown) [4,5-Dihydro-2,3-dimethyl-4-(5-methyl-2-thienyl)-3H-1,3-benzodiazepine] was tested, and the ED50 [4] was 12.2 mg/kg.
CCC1=Nc2ccccc2CC(c2cccs2)N1C.Cl (stereo not shown) [4,5-Dihydro-2-ethyl-3-methyl-4-(2-thienyl)-3H-1,3-benzodiazepine hydrochloride] showed an ED50 [4, 5] of 4.7 mg/kg.
CCC1=Nc2ccccc2CC(c2sccc2C)N1C.Cl.O (stereo not shown) [4,5-Dihydro-2-ethyl-3-methyl-4-(3-methyl-2-thienyl)-3H-1,3-benzodiazepine hydrochloride monohydrate] gave an ED50 [4, 5] of 5.3 mg/kg.
Work on CCC1=Nc2ccccc2CC(c2ccsc2)N1C.Cl (stereo not shown) [4,5-Dihydro-2-ethyl-3-methyl-4-(3-thienyl)-3H-1,3-benzodiazepine hydrochloride] yielded an ED50 [4, 5] of 8.7 mg/kg.
Compound CCC1=Nc2ccccc2CC(c2ccncc2)N1C (stereo not shown) [4,5-Dihydro-2-ethyl-3-methyl-4-(4-pyridinyl)-3H-1,3-benzodiazepine hemihydrate] has an ED50 [4] of 6.8 mg/kg.
For CN1C(=O)CN=C(c2ccccc2)c2cc(Cl)ccc21 [Diazepam, reference compound], the “Anti-Conflict Response, % Change Compared to Control” value ([3]; dose 10 m.g./kg i.p.) was “+180%”, the “Anti-Conflict Response, % Change Compared to Control” value ([3]; dose 15 m.g./kg i.p.) was “+453%” and the “Anti-Conflict Response, % Change Compared to Control” value ([3]; dose 20 m.g./kg i.p.) was “+630%”.
Compound O=C1NC(=O)C(c2ccccc2)(c2ccccc2)N1 [Diphenylhydantoin, reference compound] has an ED50 ([1]; dose protecting 50% of the animals, 95% confidence, probit analysis) of 3.9 mg/kg.
For CN(C)CCC=C1c2ccccc2COc2ccccc21 [Doxepin, reference compound], the ED50 [4, 5] was 3.8 mg/kg.
